Laboratory results from patent US20250332264A1, “GhR-BINDING PEPTIDE AND COMPOSITION COMPRISING SAME” (priority 2021, published 2025).
Starred links: 1 amine or outer side, 2 acyl side, 3 side chain; linkers in the order of their positions; H or OH if unused. Positions of bridges follow the written chain, without caps; N, C: chain ends. Non-standard residues stand in square brackets, D forms with d. Residues, ends and D or L forms follow the SMILES beside them. Groups on a side chain read outwards from the residue. *: point of attachment. X8 = NC(=O)[C@H](CCCCN*)NC(=O)COCCOCCNC(=O)COCCOCCNC(=O)CC[C@H](NC(=O)CC[C@H](NC(=O)CCCCCCCCCCCCCC(=O)O)C(=O)O)C(=O)O; A4pipaa = 4-amino-1-(carboxymethyl)piperidine-4-carboxylic acid, O=C(C1(N[*:1])CCN(CC(=O)[*:3])CC1)[*:2]; X3 = NC(=O)[C@H](CCCCN*)NC(=O)CC[C@H](NC(=O)CC[C@H](NC(=O)CCCCCCCCCCCCCCC(=O)O)C(=O)O)C(=O)O; X6 = NC(=O)[C@H](CCCCN*)NC(=O)CC[C@H](NC(=O)CC[C@H](NC(=O)CCCCCCCCCCCCCC(=O)O)C(=O)O)C(=O)O; X10 = NC(=O)[C@H](CCCCN*)NC(=O)CC[C@H](NC(=O)CC[C@H](NC(=O)CCCc1ccc(I)cc1)C(=O)O)C(=O)O; Trp(1-CH2CO) = O=C([C@H](Cc1cn(CC(=O)[*:3])c2ccccc12)N[*:1])[*:2]; Trp(5-OMe) = COc1ccc2[nH]cc(C[C@H](N)C(=O)O)c2c1; Butanoyl(4-(4-I-phenyl)) = O=C(CCCc1ccc(I)cc1)*; Trp(5-OH) = N[C@@H](Cc1c[nH]c2ccc(O)cc12)C(=O)O; Phe(4-COOH) = N[C@@H](Cc1ccc(C(=O)O)cc1)C(=O)O; Trp(7-aza) = N[C@@H](Cc1c[nH]c2ncccc12)C(=O)O; Piperazinyl(4-CH2COOH) = O=C(O)CN1CCN(*)CC1; C16 diacid = O=C(O)CCCCCCCCCCCCCCC(=O)*; γGlu = O=C(O)[C@H](CCC(=O)[*:2])N[*:1]; Ahp(2) = CCCCC[C@H](N)C(=O)O; NMeK = CN[C@@H](CCCCN)C(=O)O; Aib = CC(C)(N)C(=O)O; CO = O=C([*:1])[*:2]

B1: GhR_PD_139 (peptide)
peptide: {CH2CO}-Y[NMeK]VVSN[Trp(1-CH2CO)]YK[Trp(5-OH)][Aib]VCG-NH2
modifications: thioether N-13; lactam 2-7
SMILES: CC(C)[C@@H]1NC(=O)[C@H](C(C)C)NC(=O)[C@@H]2CCCCNC(=O)Cn3cc(c4ccccc43)C[C@H](NC(=O)[C@H](CC(N)=O)NC(=O)[C@H](CO)NC1=O)C(=O)N[C@@H](Cc1ccc(O)cc1)C(=O)N[C@@H](CCCCN)C(=O)N[C@@H](Cc1c[nH]c3ccc(O)cc13)C(=O)NC(C)(C)C(=O)N[C@@H](C(C)C)C(=O)N[C@H](C(=O)NCC(N)=O)CSCC(=O)N[C@@H](Cc1ccc(O)cc1)C(=O)N2C
notes: also called Compound No. 1

biological target: T1, Recombinant human GhR-Fc protein (R&D Systems) (human, UniProt P10912 19-264, limits assumed); experiment: SPR, Biacore T200, single-cycle kinetics, GhR-Fc immobilised on CM5; conditions: not given
T1 construct: Bought from R&D Systems; Amine-coupled to a CM5 chip in the SPR assay; also called hGhR; recombinant human GhR protein fused to Fc portion of human IgG; not shown: Fc portion of human IgG
T1 sequence (looked up): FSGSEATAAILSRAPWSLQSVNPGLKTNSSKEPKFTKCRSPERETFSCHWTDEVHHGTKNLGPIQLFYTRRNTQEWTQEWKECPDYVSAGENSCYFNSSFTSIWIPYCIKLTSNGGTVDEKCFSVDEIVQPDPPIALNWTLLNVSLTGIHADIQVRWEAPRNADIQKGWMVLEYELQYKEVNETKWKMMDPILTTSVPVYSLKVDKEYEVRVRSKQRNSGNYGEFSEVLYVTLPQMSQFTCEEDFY
Description: (§1) SPR assay was performed using Biacore T200 (cytiva: Former GE Healthcare). After the equilibration of Series S Sensor Chip CM5 (produced by cytiva: Former GE Healthcare) with Running Buffer (HBS-EP with 1% (v/v) DMSO), an EDC/NHS mixture was injected at a flow rate of 10 μL/min for 7 minutes to thereby activate the functional groups on sensor chip. Recombinant human GhR-Fc protein (R&D Systems) in 10 mM Acetate (pH4.0) was injected immobilized to at a flow rate of 5 μL/min. It took 7 minutes to immobilize the GhR on the substrate surfaces of the sensor chip. Then Ethanolamine was injected at a flow rate of 10 μL/min for 7 minutes. 1M Ethanolamine (aq.) was injected at a flow rate of 10 μL/min for 420 seconds for capping. 10 mM Peptides in DMSO were diluted to obtain 10 uM with Running Buffer, and prepared 100 nM, 50 nM, 25 nM, 10 nM, 5 nM of each peptide solutions (Peptide Samples).
(§2) Using these Peptide Samples, kinetics of peptides against human GhR-Fc protein were measured. The method adopted for sample measurement was a single-cycle kinetics method. The analysis was conducted using the evaluation software provided with Biacore T200. A DMSO correction curve obtained by solvent correction measurements was applied for the analysis. Kinetics fitting was done on the difference data obtained by subtracting the baseline data from sample measurement data. KD values were calculated based on the association rate constant (ka) and dissociation rate constant (kd).

Compared with B1, {CH2CO}-Y[NMeK]VVSN[Trp(1-CH2CO)]YK[Trp(5-OH)][A4pipaa]VCK([Glu-Glu-C16 diacid])-NH2 (thioether N-13; lactam 2-7, also called Compound No. 29) [GhR_PD_237] is 2.2-fold higher in Kd: 0.7 nM for the first, 1.57 nM for the second.

{CH2CO}-Y[NMeK]VVSN[Trp(1-CH2CO)]YK[Trp(5-OH)][Aib]VCK([Glu-Glu-Butanoyl(4-(4-I-phenyl))])-NH2 (thioether N-13; lactam 2-7, also called Compound No. 32) [GhR_PD_246] was tested, and the Kd was 0.98 nM.

biological target: T2, Recombinant human GhR-Fc protein (Homo sapiens, UniProt P10912); experiment: Binding activity of hGhR binding peptide by surface plasmon resonance (SPR), Biacore T200, single-cycle kinetics; conditions: human GhR-Fc immobilized on CM5 chip, KD calculated from ka and kd
T2 construct: purchased R&D Systems
Description: as §1, with “capping.” for “capping. 10 mM Peptides in DMSO were diluted to obtain 10 uM with Running Buffer, and prepared 100 nM, 50 nM, 25 nM, 10 nM, 5 nM of each peptide solutions (Peptide Samples).”
as §2
Furthermore, “obs. m/z [M+2H]2+” indicates the ESI-MS(+) observed value. Unless otherwise specified, this is bivalent ([M+2H]^2+).

T2 sequence (P10912 with tags, fused parts or gaps limits assumed): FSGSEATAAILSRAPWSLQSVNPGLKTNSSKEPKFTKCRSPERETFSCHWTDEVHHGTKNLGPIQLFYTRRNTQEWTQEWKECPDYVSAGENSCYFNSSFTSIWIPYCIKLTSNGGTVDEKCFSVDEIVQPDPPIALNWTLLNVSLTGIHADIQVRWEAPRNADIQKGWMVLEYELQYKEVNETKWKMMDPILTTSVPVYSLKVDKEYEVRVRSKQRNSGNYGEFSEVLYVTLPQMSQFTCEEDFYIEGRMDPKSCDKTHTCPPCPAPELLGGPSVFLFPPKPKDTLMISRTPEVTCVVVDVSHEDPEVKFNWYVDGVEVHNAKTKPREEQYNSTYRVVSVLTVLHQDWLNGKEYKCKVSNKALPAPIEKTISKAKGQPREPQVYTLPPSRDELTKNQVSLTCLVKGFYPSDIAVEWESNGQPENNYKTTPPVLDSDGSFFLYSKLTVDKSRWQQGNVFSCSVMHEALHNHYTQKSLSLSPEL

CC(C)[C@@H]1NC(=O)[C@H](C(C)C)NC(=O)[C@@H]2CCCCNC(=O)Cn3cc(c4ccccc43)C[C@H](NC(=O)[C@H](CC(N)=O)NC(=O)[C@H](CO)NC1=O)C(=O)N[C@@H](Cc1ccc(C(=O)O)cc1)C(=O)N[C@@H](CCCCN)C(=O)N[C@@H](Cc1c[nH]c3ccc(O)cc13)C(=O)NC(C)(C)C(=O)N[C@@H](C(C)C)C(=O)N[C@H](C(=O)NCCCC[C@H](NC(=O)COCCOCCNC(=O)COCCOCCNC(=O)CC[C@H](NC(=O)CC[C@H](NC(=O)CCCCCCCCCCCCCC(=O)O)C(=O)O)C(=O)O)C(N)=O)CSCC(=O)N[C@@H](Cc1ccc(C(=O)O)cc1)C(=O)N2C [Compound 63] ({CH2CO}-[Phe(4-COOH)][NMeK]VVSN[Trp(1-CH2CO)][Phe(4-COOH)]K[Trp(5-OH)][Aib]VC-X8; lactam 2-7; thioether N-13) and CC(C)[C@@H]1NC(=O)[C@H](C(C)C)NC(=O)[C@@H]2CCCCNC(=O)Cn3cc(c4ccccc43)C[C@H](NC(=O)[C@H](CC(N)=O)NC(=O)[C@H](CO)NC1=O)C(=O)N[C@@H](Cc1ccc(C(=O)O)cc1)C(=O)N[C@@H](CCCCN)C(=O)N[C@@H](Cc1c[nH]c3ccc(O)cc13)C(=O)NC(C)(C)C(=O)N[C@@H](C(C)C)C(=O)N[C@H](C(=O)NCCCC[C@H](NC(=O)CC[C@H](NC(=O)CC[C@H](NC(=O)CCCCCCCCCCCCCC(=O)O)C(=O)O)C(=O)O)C(N)=O)CSCC(=O)N[C@@H](Cc1ccc(C(=O)O)cc1)C(=O)N2C [Compound 60] ({CH2CO}-[Phe(4-COOH)][NMeK]VVSN[Trp(1-CH2CO)][Phe(4-COOH)]K[Trp(5-OH)][Aib]VC-X6; lactam 2-7; thioether N-13) are within 1.5-fold of each other in Kd: 3.7 nM for the first, 3.1 nM for the second.

COc1ccc2[nH]cc(C[C@@H]3NC(=O)[C@H](CC(N)=O)NC(=O)[C@H](CO)NC(=O)[C@H](C(C)C)NC(=O)[C@H](C(C)C)NC(=O)[C@H](CCCCNC(=O)CC[C@H](NC(=O)CCCc4ccc(I)cc4)C(=O)O)N(C)C(=O)[C@H](Cc4ccc(O)cc4)NC(=O)CSC[C@@H](C(=O)NCC(=O)N4CCC[C@H]4C(=O)N[C@H](CO)C(=O)N[C@H](CO)C(=O)N[C@H](CO)C(N)=O)NC(=O)[C@H](C(C)C)NC(=O)C(C)(C)NC(=O)[C@H](Cc4c[nH]c5ccc(O)cc45)NC(=O)[C@H](CCCCNC(=O)N4CCN(CC(=O)O)CC4)NC(=O)[C@H](Cc4ccc(C(=O)O)cc4)NC3=O)c2c1 [Compound 48] ({CH2CO}-Y[NMeK]([γGlu-Butanoyl(4-(4-I-phenyl))])VVSN[Trp(5-OMe)][Phe(4-COOH)]K([CO-Piperazinyl(4-CH2COOH)])[Trp(5-OH)][Aib]VCGP[dS][dS][dS]-NH2; thioether N-13) and COc1ccc2[nH]cc(C[C@@H]3NC(=O)[C@H](CC(N)=O)NC(=O)[C@H](CO)NC(=O)[C@H](C(C)C)NC(=O)[C@H](C(C)C)NC(=O)[C@H](CCCCNC(=O)CC[C@H](NC(=O)CC[C@H](NC(=O)CCCc4ccc(I)cc4)C(=O)O)C(=O)O)N(C)C(=O)[C@H](Cc4ccc(O)cc4)NC(=O)CSC[C@@H](C(=O)NCC(=O)N4CCC[C@H]4C(=O)N[C@H](CO)C(=O)N[C@H](CO)C(=O)N[C@H](CO)C(N)=O)NC(=O)[C@H](C(C)C)NC(=O)C(C)(C)NC(=O)[C@H](Cc4c[nH]c5ccc(O)cc45)NC(=O)[C@H](CCCCNC(=O)N4CCN(CC(=O)O)CC4)NC(=O)[C@H](Cc4ccc(C(=O)O)cc4)NC3=O)c2c1 [Compound 49] ({CH2CO}-Y[NMeK]([γGlu-γGlu-Butanoyl(4-(4-I-phenyl))])VVSN[Trp(5-OMe)][Phe(4-COOH)]K([CO-Piperazinyl(4-CH2COOH)])[Trp(5-OH)][Aib]VCGP[dS][dS][dS]-NH2; thioether N-13) are within 1.5-fold of each other in Kd: 4.35 nM for the first, 6.31 nM for the second.

CC(C)[C@@H]1NC(=O)[C@H](C(C)C)NC(=O)[C@@H]2CCCCNC(=O)Cn3cc(c4ccccc43)C[C@H](NC(=O)[C@H](CC(N)=O)NC(=O)[C@H](CO)NC1=O)C(=O)N[C@@H](Cc1ccc(C(=O)O)cc1)C(=O)N[C@@H](CCCCN)C(=O)N[C@@H](Cc1c[nH]c3ccc(O)cc13)C(=O)NC(C)(C)C(=O)N[C@@H](C(C)C)C(=O)N[C@H](C(=O)NCC(=O)N1CCC[C@H]1C(=O)N[C@H](CO)C(=O)N[C@H](CO)C(=O)N[C@H](CO)C(=O)NCCCC[C@H](NC(=O)CC[C@H](NC(=O)CC[C@H](NC(=O)CCCc1ccc(I)cc1)C(=O)O)C(=O)O)C(N)=O)CSCC(=O)N[C@@H](Cc1ccc(C(=O)O)cc1)C(=O)N2C [Compound 14] ({CH2CO}-[Phe(4-COOH)][NMeK]VVSN[Trp(1-CH2CO)][Phe(4-COOH)]K[Trp(5-OH)][Aib]VCGP[dS][dS][dS]-X10; lactam 2-7; thioether N-13) and CCCCC[C@@H]1NC(=O)[C@H](Cc2ccc(C(=O)O)cc2)NC(=O)[C@@H]2Cc3cn(c4ccccc34)CC(=O)NCCCC[C@@H](C(=O)N[C@@H](C(C)C)C(=O)N[C@@H](C(C)C)C(=O)N[C@@H](CO)C(=O)N[C@@H](CC(N)=O)C(=O)N2)N(C)C(=O)[C@H](Cc2ccc(C(=O)O)cc2)NC(=O)CSC[C@@H](C(=O)NCCCC[C@H](NC(=O)CC[C@H](NC(=O)CC[C@H](NC(=O)CCCc2ccc(I)cc2)C(=O)O)C(=O)O)C(N)=O)NC(=O)[C@H](C(C)C)NC(=O)C(C)(C)NC(=O)[C@H](Cc2c[nH]c3ccc(O)cc23)NC1=O [Compound 6] ({CH2CO}-[Phe(4-COOH)][NMeK]VVSN[Trp(1-CH2CO)][Phe(4-COOH)][Ahp(2)][Trp(5-OH)][Aib]VC-X10; lactam 2-7; thioether N-13) are within 1.5-fold of each other in Kd: 1.88 nM for the first, 1.82 nM for the second.

Compared with CC(C)[C@@H]1NC(=O)[C@H](C(C)C)NC(=O)[C@@H]2CCCCNC(=O)Cn3cc(c4ccccc43)C[C@H](NC(=O)[C@H](CC(N)=O)NC(=O)[C@H](CO)NC1=O)C(=O)N[C@@H](Cc1ccc(C(=O)O)cc1)C(=O)N[C@@H](CCCCN)C(=O)N[C@@H](Cc1c[nH]c3ccc(O)cc13)C(=O)NC(C)(C)C(=O)N[C@@H](C(C)C)C(=O)N[C@H](C(=O)NCCCC[C@H](NC(=O)CC[C@H](NC(=O)CC[C@H](NC(=O)CCCCCCCCCCCCCCC(=O)O)C(=O)O)C(=O)O)C(N)=O)CSCC(=O)N[C@@H](Cc1ccc(O)cc1)C(=O)N2C [Compound 24] ({CH2CO}-Y[NMeK]VVSN[Trp(1-CH2CO)][Phe(4-COOH)]K[Trp(5-OH)][Aib]VC-X3; lactam 2-7; thioether N-13), CC(C)[C@@H]1NC(=O)[C@H](C(C)C)NC(=O)[C@H](CCCCNC(=O)CC[C@H](NC(=O)CCCc2ccc(I)cc2)C(=O)O)N(C)C(=O)[C@H](Cc2ccc(O)cc2)NC(=O)CSC[C@@H](C(N)=O)NC(=O)[C@H](C(C)C)NC(=O)C(C)(C)NC(=O)[C@H](Cc2c[nH]c3ccc(O)cc23)NC(=O)[C@H](CCCCN)NC(=O)[C@H](Cc2ccc(C(=O)O)cc2)NC(=O)[C@H](Cc2c[nH]c3ncccc23)NC(=O)[C@H](CC(N)=O)NC(=O)[C@H](CO)NC1=O [Compound 43] ({CH2CO}-Y[NMeK]([γGlu-Butanoyl(4-(4-I-phenyl))])VVSN[Trp(7-aza)][Phe(4-COOH)]K[Trp(5-OH)][Aib]VC-NH2; thioether N-13) is 1.5-fold higher in Kd: 2.59 nM for the first, 3.95 nM for the second. The first binds more tightly here.
